In ChEMBL document CHEMBL4351023, “Novel N-benzylpiperidine carboxamide derivatives as potential cholinesterase inhibitors for the treatment of Alzheimer's disease” (Eur J Med Chem, 2019):

Tests used:
Cholinesterase = Cholinesterase (Equus caballus, UniProt P81908); assay: Inhibition of BuChE in equine serum using Butyrylthiocholine iodide as substrate by Ellman's method; assay type: cell-free
Acetylcholinesterase = Acetylcholinesterase (Electrophorus electricus, UniProt O42275); assay: Inhibition of Electrophorus electricus AChE using acetylthiocholine iodide as substrate by Ellman's method
Chain of Acetylcholinesterase (O42275 whole entry): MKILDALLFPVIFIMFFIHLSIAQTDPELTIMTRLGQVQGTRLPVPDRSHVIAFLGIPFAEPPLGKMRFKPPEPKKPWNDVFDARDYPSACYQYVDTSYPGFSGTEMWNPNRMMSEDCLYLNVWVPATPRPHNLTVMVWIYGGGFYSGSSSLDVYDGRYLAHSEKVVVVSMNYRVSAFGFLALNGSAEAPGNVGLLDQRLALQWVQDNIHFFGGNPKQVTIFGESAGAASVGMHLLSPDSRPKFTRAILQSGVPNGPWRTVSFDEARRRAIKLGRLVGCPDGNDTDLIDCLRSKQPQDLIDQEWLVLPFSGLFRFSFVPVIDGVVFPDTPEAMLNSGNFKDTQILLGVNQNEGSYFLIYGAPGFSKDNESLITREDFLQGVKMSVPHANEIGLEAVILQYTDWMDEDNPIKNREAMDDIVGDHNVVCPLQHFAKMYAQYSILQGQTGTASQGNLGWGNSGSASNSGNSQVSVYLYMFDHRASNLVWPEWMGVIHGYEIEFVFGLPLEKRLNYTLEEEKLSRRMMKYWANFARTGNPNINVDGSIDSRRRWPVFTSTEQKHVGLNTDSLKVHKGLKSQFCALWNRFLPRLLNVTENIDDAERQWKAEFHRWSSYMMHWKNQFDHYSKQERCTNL

[1] = Solubility of compound in <1 % DMSO; assay type: physicochemical
SH-SY5Y = assay: cells; assay type: ADME, cell-based; conditions: Homo sapiens, 72 h
[2] = Solubility of compound in water at 10 mM; assay type: physicochemical; conditions: buffer, 10000 µM

Chain of Cholinesterase (P81908 whole entry): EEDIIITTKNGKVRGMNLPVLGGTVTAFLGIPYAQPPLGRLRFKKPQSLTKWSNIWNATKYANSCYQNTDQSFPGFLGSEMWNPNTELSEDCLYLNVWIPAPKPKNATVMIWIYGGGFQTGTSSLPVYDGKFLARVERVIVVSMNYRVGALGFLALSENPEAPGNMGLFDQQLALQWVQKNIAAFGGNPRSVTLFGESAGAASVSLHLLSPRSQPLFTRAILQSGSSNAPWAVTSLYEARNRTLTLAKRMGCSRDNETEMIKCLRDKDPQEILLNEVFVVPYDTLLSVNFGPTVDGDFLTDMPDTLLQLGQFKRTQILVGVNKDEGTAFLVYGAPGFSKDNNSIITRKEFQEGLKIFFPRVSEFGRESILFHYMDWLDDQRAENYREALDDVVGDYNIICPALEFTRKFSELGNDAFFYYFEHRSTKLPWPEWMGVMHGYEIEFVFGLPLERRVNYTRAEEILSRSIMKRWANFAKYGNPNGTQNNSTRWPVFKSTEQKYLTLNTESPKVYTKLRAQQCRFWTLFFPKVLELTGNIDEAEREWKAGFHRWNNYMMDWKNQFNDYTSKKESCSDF

**Q.** With `O=C(NCCc1c[nH]c2ccccc12)C1CCN(Cc2ccccc2)CC1` as the compound, how does the IC50 (Cholinesterase) read?
**A.** Its IC50 is greater than 100 µM.

**Q.** What about the IC50 (Acetylcholinesterase) of the same compound?
**A.** Its IC50 is 25.6 µM.

**Q.** And the solubility [1]?
**A.** Its solubility is “Soluble”.

**Q.** What about the IC50 (SH-SY5Y) of the same compound?
**A.** The IC50 was 40.5 µM.

**Q.** And the solubility [2]?
**A.** Its solubility is “Insoluble”.

**Q.** Which results are given for `COc1cc2c(cc1OC)-c1nc(NC(=O)C3CCN(Cc4ccccc4)CC3)sc1C2`?
**A.** IC50 (Cholinesterase): > 100 µM; solubility [1]: Soluble; IC50 (SH-SY5Y): 31.3 µM; solubility [2]: Insoluble

**Q.** Which IC50 (Cholinesterase) does the source give for `Cc1c(NC(=O)C2CCN(Cc3ccccc3)CC2)c(=O)n(-c2ccccc2)n1C` here?
**A.** Its IC50 is greater than 100 µM.

**Q.** What about the IC50 (Acetylcholinesterase) of the same compound?
**A.** Its IC50 is 5.94 µM.

**Q.** What about the solubility [1] of the same compound?
**A.** Its solubility is “Soluble”.

**Q.** And the IC50 (SH-SY5Y)?
**A.** The IC50 was greater than 100 µM.

**Q.** What about the solubility [2] of the same compound?
**A.** The solubility was “Insoluble”.

**Q.** With `O=C(Nc1nccs1)C1CCN(Cc2ccccc2)CC1` as the compound, how does the IC50 (Cholinesterase) read?
**A.** The IC50 was greater than 100 µM.

**Q.** What about the IC50 (Acetylcholinesterase) of the same compound?
**A.** Its IC50 is 51.1 µM.

**Q.** What about the solubility [1] of the same compound?
**A.** Its solubility is “Soluble”.

**Q.** And the IC50 (SH-SY5Y)?
**A.** Its IC50 is 76.6 µM.

**Q.** And the solubility [2]?
**A.** Its solubility is “Insoluble”.

**Q.** Which IC50 (Cholinesterase) does the source give for `O=C(NC1CCCc2ccccc21)C1CCN(Cc2ccccc2)CC1` (stereo not given) here?
**A.** Its IC50 is greater than 100 µM.

**Q.** What about the IC50 (Acetylcholinesterase) of the same compound?
**A.** Its IC50 is greater than 100 µM.

**Q.** What about the solubility [1] of the same compound?
**A.** Its solubility is “Soluble”.

**Q.** And the IC50 (SH-SY5Y)?
**A.** Its IC50 is 99.3 µM.

**Q.** And the solubility [2]?
**A.** Its solubility is “Insoluble”.

**Q.** What does the source list for `O=C(NCCN1CCCCC1)C1CCN(Cc2ccccc2)CC1`?
**A.** IC50 (Cholinesterase): > 100 µM; IC50 (Acetylcholinesterase): 82.1 µM; solubility [1]: Soluble; IC50 (SH-SY5Y): > 100 µM; solubility [2]: Insoluble

**Q.** What does the source list for `O=C(NCc1ccccn1)C1CCN(Cc2ccccc2)CC1`?
**A.** IC50 (Cholinesterase): > 100 µM; IC50 (Acetylcholinesterase): 30.9 µM; solubility [1]: Soluble; IC50 (SH-SY5Y): > 100 µM; solubility [2]: Insoluble

**Q.** With `O=C(NCCNc1cccc2ccccc12)C1CCN(Cc2ccccc2)CC1` as the compound, how does the IC50 (Cholinesterase) read?
**A.** Its IC50 is greater than 100 µM.

**Q.** What about the IC50 (Acetylcholinesterase) of the same compound?
**A.** The IC50 was 14 µM.

**Q.** What about the solubility [1] of the same compound?
**A.** Its solubility is “Soluble”.

**Q.** And the IC50 (SH-SY5Y)?
**A.** The IC50 was 13.6 µM.

**Q.** What about the solubility [2] of the same compound?
**A.** The solubility was “Insoluble”.

**Q.** For `COc1cc(CCNC(=O)C2CCN(Cc3ccccc3)CC2)cc(OC)c1OC`, which IC50 (Cholinesterase) is on record?
**A.** The IC50 was greater than 100 µM.

**Q.** What about the IC50 (Acetylcholinesterase) of the same compound?
**A.** Its IC50 is greater than 100 µM.

**Q.** And the solubility [1]?
**A.** Its solubility is “Soluble”.

**Q.** What about the IC50 (SH-SY5Y) of the same compound?
**A.** The IC50 was greater than 100 µM.

**Q.** And the solubility [2]?
**A.** The solubility was “Insoluble”.

**Q.** For `O=C(NCCN1CCOCC1)C1CCN(Cc2ccccc2)CC1`, which IC50 (Cholinesterase) is on record?
**A.** The IC50 was greater than 100 µM.

**Q.** What about the IC50 (Acetylcholinesterase) of the same compound?
**A.** The IC50 was greater than 100 µM.

**Q.** And the solubility [1]?
**A.** The solubility was “Soluble”.

**Q.** What about the IC50 (SH-SY5Y) of the same compound?
**A.** The IC50 was 73.4 µM.

**Q.** What about the solubility [2] of the same compound?
**A.** The solubility was “Insoluble”.

**Q.** What does the source list for `O=C(NCCc1c[nH]cn1)C1CCN(Cc2ccccc2)CC1`?
**A.** IC50 (Cholinesterase): > 100 µM; IC50 (Acetylcholinesterase): > 100 µM; solubility [1]: Soluble; IC50 (SH-SY5Y): > 100 µM; solubility [2]: Insoluble

**Q.** For `O=C(NCc1ccncc1)C1CCN(Cc2ccccc2)CC1`, which IC50 (Cholinesterase) is on record?
**A.** Its IC50 is greater than 100 µM.

**Q.** What about the IC50 (Acetylcholinesterase) of the same compound?
**A.** The IC50 was 58.2 µM.

**Q.** What about the solubility [1] of the same compound?
**A.** Its solubility is “Soluble”.

**Q.** And the IC50 (SH-SY5Y)?
**A.** The IC50 was 3.37 µM.

**Q.** What about the solubility [2] of the same compound?
**A.** The solubility was “Insoluble”.

**Q.** For `O=C(NCc1cccnc1)C1CCN(Cc2ccccc2)CC1`, which IC50 (Cholinesterase) is on record?
**A.** Its IC50 is greater than 100 µM.

**Q.** And the IC50 (Acetylcholinesterase)?
**A.** Its IC50 is 58.9 µM.

**Q.** What about the solubility [1] of the same compound?
**A.** The solubility was “Soluble”.

**Q.** What about the IC50 (SH-SY5Y) of the same compound?
**A.** Its IC50 is greater than 100 µM.

**Q.** What about the solubility [2] of the same compound?
**A.** Its solubility is “Insoluble”.

**Q.** For `O=C(NCc1ccco1)C1CCN(Cc2ccccc2)CC1`, which IC50 (Cholinesterase) is on record?
**A.** The IC50 was greater than 100 µM.

**Q.** What about the IC50 (Acetylcholinesterase) of the same compound?
**A.** Its IC50 is greater than 100 µM.

**Q.** What about the solubility [1] of the same compound?
**A.** The solubility was “Soluble”.

**Q.** And the IC50 (SH-SY5Y)?
**A.** The IC50 was greater than 100 µM.

**Q.** What about the solubility [2] of the same compound?
**A.** The solubility was “Insoluble”.

**Q.** Which IC50 (Cholinesterase) does the source give for `COc1ccccc1CNC(=O)C1CCN(Cc2ccccc2)CC1` here?
**A.** Its IC50 is greater than 100 µM.

**Q.** What about the IC50 (Acetylcholinesterase) of the same compound?
**A.** The IC50 was 44.4 µM.

**Q.** What about the solubility [1] of the same compound?
**A.** The solubility was “Soluble”.

**Q.** What about the IC50 (SH-SY5Y) of the same compound?
**A.** Its IC50 is 50.9 µM.

**Q.** And the solubility [2]?
**A.** The solubility was “Insoluble”.

**Q.** Which IC50 (SH-SY5Y) does the source give for `COc1cc2c(cc1OC)C(=O)C(CC1CCN(Cc3ccccc3)CC1)C2` (stereo not given) [DONEPEZIL] here?
**A.** The IC50 was 95.1 µM.
